Results published in patent publication US6107310A, “Heteroarylcarboxamide derivatives for treating CNS disorders” (Knoll Aktiengesellschaft, priority 1995, dated 2000).
Counter-ions that a name gives are not always drawn.

What was measured:
Design in all cases: species or system rat (male Charles River CD)
5-HT1A receptors = target: T1, 5-HT1A receptors (Rattus norvegicus, UniProt P19327); experiment: inhibition of [3H]8-OH-DPAT binding to 5-HT1A receptors in rat hippocampal tissue; conditions: rat hippocampus
T1 construct: Hippocampal tissue from the brains of male Charles River CD rats; from tissue; host or cells: rat hippocampus (male Charles River CD rats), membrane preparation
T1 sequence (P19327 1-422): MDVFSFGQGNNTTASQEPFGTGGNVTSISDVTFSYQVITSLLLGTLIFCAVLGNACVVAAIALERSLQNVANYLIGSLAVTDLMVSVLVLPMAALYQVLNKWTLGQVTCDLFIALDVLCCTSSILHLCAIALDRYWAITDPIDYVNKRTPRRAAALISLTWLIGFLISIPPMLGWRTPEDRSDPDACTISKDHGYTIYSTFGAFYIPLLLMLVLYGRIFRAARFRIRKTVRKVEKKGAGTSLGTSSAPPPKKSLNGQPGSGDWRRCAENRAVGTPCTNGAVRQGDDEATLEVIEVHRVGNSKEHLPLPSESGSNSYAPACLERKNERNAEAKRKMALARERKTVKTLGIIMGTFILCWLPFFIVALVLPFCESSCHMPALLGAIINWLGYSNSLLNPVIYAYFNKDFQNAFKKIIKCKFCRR
Protocol: Hippocampal tissue from the brains of male Charles River CD rats weighing between 150-250 g were homogenised in ice-cold 50 mM Tris-HCI buffer (pH 7.7) when measured at 25° C., 1:40 w/v) and centrifuged at 30,000 g at 4° C. for 10 minutes. The pellet was rehomogenised in the same buffer, incubated at 37° C. for 10 minutes and centrifuged at 30,000 g at 4° C. for 10 minutes. The final pellet was resuspended in 50 mM Tris-HCl buffer (pH 7.7) containing 4 mM CaCl2, 0.1% L-ascorbic acid and 10 μM pargyline hydrochloride (equivalent to 6.25 mg wet weight of tissue/ml) and used immediately in the binding assay. […]
(§1) The filters were washed with ice-cold Tris-HCl buffer and dried. The filters were punched out into vials, scintillation fluid added and radioactivity determined by liquid scintillation counting. The percentage displacement of specific binding of the tritiated ligand was calculated for the single concentration (10^-6 M) of test compound. […] The inhibition coefficient Ki was then calculated using the formula [formula] in which [ligand] is the concentration of the tritiated ligand used and KD is the equilibrium dissociation constant for the ligand.

α1-adrenoceptors = experiment: inhibition of [7-methoxy-3H]prazosin binding to α1-adrenoceptors in rat whole cortical tissue; conditions: rat cortex
Protocol: Whole cortical tissue from the brains of male Charles River CD rats weighing between 150-250 g were homogenised in ice-cold 50 mM Tris-HCl, pH 7.6 (at 25° C.; 1:40 w/v) and centrifuged at 1000 g at 4° C. for 10 minutes. The supernatant was centrifuged at 30,000 g at 4° C. for 10 minutes. The pellet was rehomogenised in 50 mM Tris-HCl, pH 7.6 (1:40 w/v) and centrifuged at 30,000 g at 4° C. for 10 minutes. The final pellet was resuspended in 50 mM Tris-HCl, pH 7.6 (equivalent to 12.5 mg wet weight of tissue/ml) and used immediately in the binding assay. […]
as §1

[1] = target: T2, D2-like dopamine receptors (Rattus norvegicus, UniProt P61169); experiment: inhibition of tritiated (S)-sulpiride binding to D2-like dopamine receptors in rat striatal tissue; conditions: rat striatum
T2 construct: Striatal tissue from the brains of male Charles River CD rats; from tissue; host or cells: rat striatum (male Charles River CD rats), membrane preparation
T2 sequence (P61169 whole entry): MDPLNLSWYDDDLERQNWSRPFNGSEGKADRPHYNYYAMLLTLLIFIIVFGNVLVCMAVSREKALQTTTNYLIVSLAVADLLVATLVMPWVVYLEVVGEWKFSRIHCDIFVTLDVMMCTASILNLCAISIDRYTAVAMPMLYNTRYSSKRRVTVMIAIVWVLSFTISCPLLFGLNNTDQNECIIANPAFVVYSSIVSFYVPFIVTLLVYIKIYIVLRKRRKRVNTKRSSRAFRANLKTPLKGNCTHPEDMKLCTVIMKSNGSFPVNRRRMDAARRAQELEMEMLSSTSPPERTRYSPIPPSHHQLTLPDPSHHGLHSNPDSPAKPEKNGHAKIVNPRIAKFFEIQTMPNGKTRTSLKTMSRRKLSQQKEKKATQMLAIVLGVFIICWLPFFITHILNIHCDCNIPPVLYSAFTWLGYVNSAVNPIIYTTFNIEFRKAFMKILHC
Protocol: Striatal tissue from the brains of male Charles River CD rats weighing between 140-250 g were homogenised in ice-cold 50 mM Tris-HCl buffer (pH 7.7 when measured at 25° C.) and centrifuged at 40,000 g for 10 minutes. The pellet was resuspended in Tris salts buffer (50 mM Tris-HCl buffer containing 120 mM NaCl, 5 mM KCl, 2 mM CaCl2 and 1 mM MgCl2 with the addition of 6 mM ascorbic acid; pH 7.7 when measured at 25° C.), and again centrifuged at 40,000 g for 10 minutes. The final pellet was stored at -80° C. Before each test the pellet was resuspended in Tris salts buffer (equivalent to 2 mg wet weight of tissue/ml). […]
as §1, with “in to” for “into”, “were left for about 20 hours before being counted” for “radioactivity determined”, “by” for “by liquid”, “spectrophotometry.” for “counting.”

Row | SMILES | inhibition at 1 µM (5-HT1A receptors; 10^-6 M, [3H]8-OH-DPAT, read-out: % displacement at 10^-6 M (5-HT1A)) [%] | % displacement at 10^-6 M (α1) (α1-adrenoceptors; 10^-6 M, [7-methoxy-3H]prazosin, 30 min, 1 µM) [%] | inhibition at 1 µM ([1]; 10^-6 M, tritiated (S)-sulpiride, read-out: % displacement at 10^-6 M (D2-like)) [%] | Ki (5-HT1A receptors; [3H]8-OH-DPAT 2 nM, 25° C., 30 minutes) [nM] | Ki (α1-adrenoceptors; [7-methoxy-3H]prazosin 0.1 nM, 30° C., 30 minutes) [nM] | Ki ([1]; tritiated (S)-sulpiride 1 nM, 4° C., 40 minutes) [nM]
1 | O=C(NCC1CCN(C[C@H]2COc3ccc4[nH]ccc4c3O2)CC1)c1ccccn1 [Example 2, (S)-N-{[1-(2,3-dihydro-7H-1,4-dioxino[2,3-e]indol-2-ylmethyl)-4-piperidyl]methyl}pyridine-2-carboxamide 1.3 fumarate, 0.25 diethyl ether, 1.0 hydrate] | 99 | 93 | 122 | – | – | –
2 | Nc1ncccc1C(=O)NCC1CCN(C[C@H]2COc3ccc4[nH]ccc4c3O2)CC1 [Example 1, (S)-2-amino-N-{[1-(2,3-dihydro-7H-1,4-dioxino[2,3-e]indol-2-ylmethyl)-4-piperidyl]methyl}pyridine-3-carboxamide] | – | – | – | 3.1 | 12.4 | 7.6
